{"source": "EPA's ToxValDB 9.5 (doi:10.2903/j.efsa.2014.3353)", "key": {"[1]": {"system": "Daphnia magna", "conditions": "chronic/long-term; duration: 21 days; mobility"}, "[2]": {"system": "Cyprinodon variegatus", "conditions": "acute; duration: 96 hours; mortality"}, "[3]": {"system": "Bibionidae", "conditions": "chronic/long-term; duration: 28 days; development"}, "[4]": {"system": "Oryctolagus sp.", "conditions": "reproduction developmental; body weight"}, "[5]": {"system": "Pimephales promelas", "conditions": "chronic/long-term; duration: 28 days; growth"}, "[6]": {"system": "Apis mellifera", "conditions": "acute, duration: 48 hours, mortality"}, "[7]": {"system": "Colinus virginianus", "conditions": "for LD50: acute, oral, mortality"}, "[8]": {"system": "Rattus norvegicus"}, "[9]": {"system": "Tagia sp.", "conditions": "acute; duration: 14 days; mortality"}}}
{"molecule": "COc1cc(OC)nc(NC(=O)NS(=O)(=O)Nc2ccccc2C(=O)N(C)C)n1", "note": "[Orthosulfamuron]", "values": [{"measurement": "NOEC", "setting": "[1]", "result": 10, "unit": "mg/L"}, {"measurement": "LC50", "setting": "[2]", "result": "> 123", "unit": "µg/mL"}, {"measurement": "NOEC", "setting": "[3]", "result": 66.9, "unit": "mg/L"}, {"measurement": "NOAEL", "setting": "[4]", "result": 75, "unit": "mg/kg-day"}, {"measurement": "NOEC", "setting": "[5]", "result": 6.1, "unit": "mg/L"}, {"measurement": "LD50", "setting": "[6]; dermal", "result": "> 100", "unit": "µg/piece"}, {"measurement": "LC50", "setting": "[6]; oral, unspecified", "result": "> 109", "unit": "µg/piece"}, {"measurement": "LD50", "setting": "[7]; duration: 5 days, diet", "result": "> 936", "unit": "mg/kg-day"}, {"measurement": "LD50", "setting": "[7]", "result": "> 2000", "unit": "mg/kg-day"}, {"measurement": "NOEC", "setting": "[7]; reproduction developmental, duration: 21 weeks", "result": 112, "unit": "mg/kg-day"}, {"measurement": "LD50", "setting": "[8]; acute, oral, mortality", "result": "> 5000", "unit": "mg/kg-day"}, {"measurement": "NOAEL", "setting": "[8]; chronic, duration: 2 years, other", "result": 5, "unit": "mg/kg-day"}, {"measurement": "NOAEL", "setting": "[8]; reproduction developmental, mobility", "result": 70.8, "unit": "mg/kg-day"}, {"measurement": "NOAEL", "setting": "[8]; reproduction developmental, other", "result": 5, "unit": "mg/kg-day"}, {"measurement": "LOAEL", "setting": "[8]; subchronic, duration: 90 days, oral, immunology", "result": 19, "unit": "mg/kg-day"}, {"measurement": "LC50", "setting": "[9]", "result": "> 1000", "unit": "mg/kg"}]}
